In the supplement of paper PMC10307832:

Columns and labels:
Experiment in all cases: relative viability (nuclei count vs DMSO), 5 days (fraction); higher = more cells survive
[1] = compound: C1=CC=C(C(=C1)C2=CC=C(C=C2)C3=CSC4=C3C(=C(C(=O)N4)C#N)O)O + C[C@@H](Oc1cc(-c2cnn(C3CCNCC3)c2)cnc1N)c1c(Cl)ccc(F)c1Cl [Crizotinib] (partner 1 µM)
How it was run: (§1)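 Relative viability divides the nuclei count in treated wells by that in vehicle wells. Lung cancer cell lines were seeded in 1536-well plates, dosed by pin tool the next day, and fixed and stained after 5 days in one step with final 0.05% Triton X-100, 1% formaldehyde and 1 ug/ml Hoechst. Dosing was a single drug or a fixed anchor-drug dose plus five library-drug doses (not always all listed) in √10 steps, and values are medians of duplicate plates imaged at 4×.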

TGX 221 + Lapatinib = compound: CC1=CN2C(=O)C=C(N=C2C(=C1)C(C)NC3=CC=CC=C3)N4CCOCC4 [TGX 221] + CS(=O)(=O)CCNCc1ccc(-c2ccc3ncnc(Nc4ccc(OCc5cccc(F)c5)c(Cl)c4)c3c2)o1 [Lapatinib] (partner 2 µM)
How it was run: as §1

[2] = compound: O=C(CCCCCCNC(=O)c1cnc(N(c2ccccc2)c2ccccc2)nc1)NO [Ricolinostat] + C[C@]1(O)C[C@@H](c2nc(-c3ccc4ccc(-c5ccccc5)nc4c3)c3c(N)nccn32)C1 [Linsitinib] (partner 1 µM)
How it was run: as §1

[3] = compound: O=C(CCCCCCNC(=O)c1cnc(N(c2ccccc2)c2ccccc2)nc1)NO [Ricolinostat] + Cc1cc(Nc2cc(N3CCN(C)CC3)nc(Sc3ccc(NC(=O)C4CC4)cc3)n2)n[nH]1 [Tozasertib] (partner 0.1 µM)
How it was run: as §1

Row | Cell Line | relative viability ([1]; first compound 0.08 µM) | relative viability ([1]; first compound 0.253 µM) | relative viability ([1]; first compound 0.8 µM) | relative viability ([1]; first compound 2.53 µM) | relative viability ([1]; first compound 8 µM) | relative viability (TGX 221 + Lapatinib; first compound 0.08 µM) | relative viability (TGX 221 + Lapatinib; first compound 0.253 µM) | relative viability (TGX 221 + Lapatinib; first compound 0.8 µM) | relative viability (TGX 221 + Lapatinib; first compound 2.53 µM) | relative viability (TGX 221 + Lapatinib; first compound 8 µM) | relative viability ([2]; first compound 0.08 µM) | relative viability ([2]; first compound 0.253 µM) | relative viability ([2]; first compound 0.8 µM) | relative viability ([2]; first compound 2.53 µM) | relative viability ([3]; first compound 0.08 µM) | relative viability ([3]; first compound 0.253 µM) | relative viability ([3]; first compound 0.8 µM) | relative viability ([3]; first compound 2.53 µM)
1 | HCC-827 | 1.02 | 0.959 | 0.965 | 1.03 | 0.926 | 0.187 | 0.205 | 0.2 | 0.191 | 0.205 | 0.896 | 0.91 | 0.966 | 1.02 | 0.354 | 0.413 | 0.409 | 0.379
2 | EMC-BAC-2 | 0.741 | 0.824 | 0.632 | 0.821 | 0.644 | 0.841 | 0.83 | 0.894 | 0.903 | 0.874 | 0.731 | 0.78 | 0.832 | 0.885 | 0.318 | 0.234 | 0.204 | 0.206
3 | NCI-H2023 | 0.546 | 0.759 | 0.607 | 0.701 | 0.538 | 0.79 | 0.718 | 0.73 | 0.689 | 0.769 | 0.612 | 0.614 | 0.627 | 0.625 |  | 0.373 | 0.244 | 0.188
4 | NCI-H1993 | 0.794 | 0.922 | 0.816 | 0.776 | 0.741 | 0.786 | 0.697 | 0.766 | 0.689 | 0.915 | 0.696 | 0.772 | 0.665 | 0.778 |  | 0.644 | 0.561 | 0.536
5 | COR-L 105 | 0.712 | 1.04 | 0.646 | 0.778 | 0.646 | 0.409 | 0.333 | 0.394 | 0.394 | 0.325 | 0.761 | 0.92 | 1.1 | 1.11 |  | 0.325 | 0.3 | 0.352
6 | NCI-H596 | 0.96 | 1.02 | 1.08 | 0.97 | 0.834 | 1.13 | 1.09 | 1.03 | 0.993 | 0.958 | 1.09 | 1.05 | 1 | 1.09 | 0.977 | 1.08 | 0.983 | 0.859
7 | LK-2 |  |  | 0.236 | 0.21 | 0.296 | 0.853 | 0.891 | 0.887 | 0.915 | 1.01 | 0.629 | 0.645 | 0.613 | 0.524 | 0.181 | 0.181 | 0.202 | 0.174
8 | NCI-H650 | 0.713 | 1.05 | 0.633 | 0.703 | 0.719 | 1 | 0.98 | 0.706 | 0.908 | 0.76 |  | 0.853 | 0.563 | 0.439 | 0.671 | 0.675 | 0.673 | 0.467
9 | NCI-H520 | 0.517 | 1.03 | 0.78 | 0.981 | 0.524 | 0.724 | 0.562 | 0.824 | 0.671 | 0.516 |  | 0.991 | 1.02 | 0.869 |  | 0.374 | 0.345 | 0.345
10 | ABC-1 | 0.743 | 1.55 | 1.05 | 0.928 | 1 | 0.987 | 1.14 | 1.12 | 1.24 | 1.09 | 0.616 | 0.772 | 0.944 | 0.669 | 0.215 | 0.203 | 0.229 | 0.18
11 | NCI-H322M | 0.708 | 0.535 | 0.882 | 0.99 | 0.868 | 0.567 | 0.6 | 0.547 | 0.562 | 0.67 |  | 0.865 | 1.01 | 0.968 |  | 0.504 | 0.517 | 0.497
12 | HCC-78 | 0.374 | 0.423 | 0.443 | 0.343 | 0.3 | 0.702 | 0.699 |  | 0.277 | 0.794 |  | 0.551 | 0.417 | 0.271 |  | 0.33 | 0.347 | 0.27
13 | NCI-H2228 | 0.385 | 0.505 | 0.495 | 0.33 | 0.392 | 0.948 | 1.46 | 0.909 | 0.759 | 0.751 | 0.455 | 0.451 | 0.722 | 0.814 | 0.37 | 0.235 | 0.237 | 0.141
14 | NCI-H2009 | 0.916 | 1.03 | 1.01 | 1.04 | 0.955 | 0.961 | 0.927 | 0.894 | 0.882 | 0.772 | 1.08 | 1.15 | 1.09 | 0.952 | 0.745 | 0.686 | 0.68 | 0.607
15 | LXF-289 | 0.779 | 0.852 | 0.789 | 0.845 | 0.826 | 0.933 | 0.889 | 0.955 | 0.904 | 0.885 | 0.93 | 0.956 | 0.966 | 0.962 | 0.192 | 0.201 | 0.22 | 0.19
16 | NCI-H1975 | 0.852 | 1.03 | 1.01 | 1.05 | 0.721 | 0.92 | 0.855 | 0.861 | 0.796 | 0.791 | 0.998 | 0.878 |  | 0.835 | 0.83 | 0.708 | 0.604 | 0.59
17 | NCI-H2347 | 0.717 | 0.807 | 0.558 | 0.658 | 0.687 | 0.945 | 0.908 | 0.976 | 0.996 | 0.915 | 0.832 | 0.92 | 0.876 | 0.906 | 0.419 | 0.47 | 0.513 | 0.425
